ChEMBL document CHEMBL3797190, “Development of 3,5-Dinitrobenzylsulfanyl-1,3,4-oxadiazoles and Thiadiazoles as Selective Antitubercular Agents Active Against Replicating and Nonreplicating Mycobacterium tuberculosis” (J Med Chem, 2016)
In brackets after ≈: the same amount, converted by molar mass.

Legend:
[1] = test system: Mycobacterium tuberculosis; assay: Antimycobacterial activity against multi drug resistant Mycobacterium tuberculosis Praha 4 after 14 days by microdilution method; settings: Praha 4, 336 h
[2] = test system: Mycobacterium tuberculosis; assay: Antimycobacterial activity against multi drug resistant Mycobacterium tuberculosis 9449/2007 after 21 days by microdilution method; type: functional; settings: 9449/2007, 504 h
[3] = test system: Mycobacterium tuberculosis; assay: microbe, parasite or virus in culture; settings: 234/2005, 336 h
[4] = test system: Mycobacterium tuberculosis; assay: Antimycobacterial activity against multi drug resistant Mycobacterium tuberculosis Praha 4 after 21 days by microdilution method; type: functional; settings: Praha 4, 504 h
[5] = test system: Mycobacterium tuberculosis; assay: Antimycobacterial activity against multi drug resistant Mycobacterium tuberculosis 9449/2007 after 14 days by microdilution method; type: functional; settings: for MIC99: 9449/2007, 336 h
[6] = test system: Mycobacterium tuberculosis; assay: Antimycobacterial activity against multi drug resistant Mycobacterium tuberculosis 8666/2010 after 21 days by microdilution method; type: functional; settings: 8666/2010, 504 h
[7] = test system: Mycobacterium tuberculosis; assay: Antimycobacterial activity against multi drug resistant Mycobacterium tuberculosis Praha 1 after 21 days by microdilution method; type: functional; settings: Praha 1, 504 h
[8] = test system: Mycobacterium tuberculosis; assay: Antimycobacterial activity against multi drug resistant Mycobacterium tuberculosis 8666/2010 after 14 days by microdilution method; type: functional; settings: for MIC99: 8666/2010, 336 h
[9] = test system: Mycobacterium tuberculosis; assay: Antimycobacterial activity against multi drug resistant Mycobacterium tuberculosis Praha 1 after 14 days by microdilution method; type: functional; settings: for MIC99: Praha 1, 336 h
[10] = test system: Mycobacterium tuberculosis; assay: Antimycobacterial activity against multi drug resistant Mycobacterium tuberculosis 234/2005 after 21 days by microdilution method; type: functional; settings: 234/2005, 504 h
[11] = test system: Mycobacterium tuberculosis; assay: Antimycobacterial activity against multi drug resistant Mycobacterium tuberculosis Praha 131 after 14 days by microdilution method; type: functional; settings: for MIC99: Praha 131, 336 h
[12] = test system: Mycobacterium tuberculosis; assay: Antimycobacterial activity against multi drug resistant Mycobacterium tuberculosis Praha 131 after 21 days by microdilution method; type: functional; settings: Praha 131, 504 h

CC1COc2c(N3CCN(C)CC3)c(F)cc3c(=O)c(C(=O)O)cn1c23 (stereo unspecified) [OFLOXACIN]
MIC99 [1]: > 16 µM

COc1ccc(-c2nnc(SCc3cc([N+](=O)[O-])cc([N+](=O)[O-])c3)s2)cc1
MIC99 [2]: 0.25 µM (≈ 0.101 µg/mL)
MIC99 [3]: 0.125 µM (≈ 0.0506 µg/mL)
MIC99 [4]: 0.25 µM (≈ 0.101 µg/mL)
MIC99 [1]: 0.125 µM (≈ 0.0506 µg/mL)
MIC99 [5]: 0.125 µM (≈ 0.0506 µg/mL)
MIC99 [6]: 0.125 µM (≈ 0.0506 µg/mL)
MIC99 [7]: 0.25 µM (≈ 0.101 µg/mL)
MIC99 [8]: 0.06 µM (≈ 0.0243 µg/mL)
MIC99 [9]: 0.125 µM (≈ 0.0506 µg/mL)
MIC99 [10]: 0.25 µM (≈ 0.101 µg/mL)
MIC99 [11]: 0.125 µM (≈ 0.0506 µg/mL)
MIC99 [12]: 0.25 µM (≈ 0.101 µg/mL)

NCC[C@H](O)C(=O)N[C@@H]1C[C@H](N)[C@@H](O[C@H]2O[C@H](CN)[C@@H](O)[C@H](O)[C@H]2O)[C@H](O)[C@H]1O[C@H]1O[C@H](CO)[C@@H](O)[C@H](N)[C@H]1O [AMIKACIN]
MIC99 [11]: > 32 µM

O=[N+]([O-])c1cc(CSc2nnc(-c3ccccc3)o2)cc([N+](=O)[O-])c1
MIC99 [3]: ≤ 0.03 µM
MIC99 [1]: ≤ 0.03 µM
MIC99 [8]: ≤ 0.03 µM
MIC99 [11]: ≤ 0.03 µM

O=[N+]([O-])c1cc(CSc2nnc(-c3ccc(Cl)cc3)s2)cc([N+](=O)[O-])c1
MIC99 [2]: 0.5 µM (≈ 0.204 µg/mL)
MIC99 [3]: 0.5 µM (≈ 0.204 µg/mL)
MIC99 [4]: 0.5 µM (≈ 0.204 µg/mL)
MIC99 [1]: 0.25 µM (≈ 0.102 µg/mL)
MIC99 [5]: 0.25 µM (≈ 0.102 µg/mL)
MIC99 [6]: 0.5 µM (≈ 0.204 µg/mL)
MIC99 [7]: 0.5 µM (≈ 0.204 µg/mL)
MIC99 [8]: 0.25 µM (≈ 0.102 µg/mL)
MIC99 [9]: 0.25 µM (≈ 0.102 µg/mL)
MIC99 [10]: 0.5 µM (≈ 0.204 µg/mL)
MIC99 [11]: 0.5 µM (≈ 0.204 µg/mL)
MIC99 [12]: 0.5 µM (≈ 0.204 µg/mL)

GENTAMICIN
MIC>99 [5]: 1 µM
MIC>99 [8]: 2 µM
MIC>99 [9]: 1 µM
MIC>99 [11]: > 8 µM

COc1ccc(-c2nnc(SCc3cc([N+](=O)[O-])cc([N+](=O)[O-])c3)o2)cc1
MIC99 [3]: 0.06 µM (≈ 0.0233 µg/mL)
MIC99 [1]: 0.06 µM (≈ 0.0233 µg/mL)
MIC99 [5]: 0.06 µM (≈ 0.0233 µg/mL)
MIC99 [6]: 0.06 µM (≈ 0.0233 µg/mL)
MIC99 [8]: 0.06 µM (≈ 0.0233 µg/mL)
MIC99 [9]: 0.06 µM (≈ 0.0233 µg/mL)
MIC99 [11]: 0.06 µM (≈ 0.0233 µg/mL)

CN[C@@H]1[C@H](O[C@H]2[C@H](O[C@H]3[C@H](O)[C@@H](O)[C@H](N=C(N)N)[C@@H](O)[C@@H]3N=C(N)N)O[C@@H](C)[C@]2(O)C=O)O[C@@H](CO)[C@H](O)[C@H]1O [STREPTOMYCIN]
MIC99 [1]: > 32 µM
MIC99 [5]: > 32 µM
MIC99 [8]: > 32 µM
MIC99 [11]: > 32 µM

CO[C@H]1/C=C/O[C@@]2(C)Oc3c(C)c(O)c4c(O)c(c(/C=N/N5CCN(C)CC5)c(O)c4c3C2=O)NC(=O)/C(C)=C\C=C\[C@H](C)[C@H](O)[C@@H](C)[C@@H](O)[C@@H](C)[C@H](OC(C)=O)[C@@H]1C [RIFAMPIN]
MIC99 [3]: > 8 µM
MIC99 [1]: > 8 µM
MIC99 [5]: > 8 µM
MIC99 [8]: > 8 µM
MIC99 [9]: > 8 µM
MIC99 [11]: > 8 µM
